A short description of data set [1]: Metabolic stability in CD-1 mouse liver microsomes assessed as compound remaining after 90 mins in presence of NADPH. Type of data set: ADME, Microsome. The settings on record: read-out: Stability.
For data set [2], the target named is T1, Bifunctional epoxide hydrolase 2 (Homo sapiens, UniProt P34913).
T1 sequence (P34913 whole entry): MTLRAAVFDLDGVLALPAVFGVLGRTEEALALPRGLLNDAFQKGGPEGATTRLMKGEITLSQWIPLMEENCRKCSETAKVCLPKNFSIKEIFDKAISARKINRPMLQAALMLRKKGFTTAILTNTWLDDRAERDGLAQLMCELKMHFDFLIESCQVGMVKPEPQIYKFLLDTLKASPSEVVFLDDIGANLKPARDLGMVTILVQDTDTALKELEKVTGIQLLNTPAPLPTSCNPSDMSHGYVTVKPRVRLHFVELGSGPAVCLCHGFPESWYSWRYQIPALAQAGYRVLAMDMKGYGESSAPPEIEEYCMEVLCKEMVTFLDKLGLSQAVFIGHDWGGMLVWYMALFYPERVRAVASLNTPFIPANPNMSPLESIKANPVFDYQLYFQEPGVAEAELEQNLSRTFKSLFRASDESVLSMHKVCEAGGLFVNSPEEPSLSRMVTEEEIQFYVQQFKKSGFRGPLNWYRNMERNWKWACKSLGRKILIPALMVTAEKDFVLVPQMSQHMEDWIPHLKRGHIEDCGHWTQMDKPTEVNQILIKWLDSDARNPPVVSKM

Another data set relates to Plasma. The settings on record: human, 4 h, 10 µM.
The subject of another data set is Vero. The experiment in a line: cells. The conditions noted are these: Chlorocebus sabaeus, 72 h.
For another data set, the system named is Pseudomonas aeruginosa. The experiment in a line: microbe, parasite or virus in culture.
In the next data set the test system is Proteus vulgaris. The experiment in a line: microbe, parasite or virus in culture.
The subject of another data set is Proteus mirabilis. Put plainly: microbe, parasite or virus in culture.
The next data set has as its system Klebsiella pneumoniae. The experiment in a line: microbe, parasite or virus in culture.
Another data set has as its system Escherichia coli. The experiment in a line: microbe, parasite or virus in culture. The settings on record: K-12.
Another data set relates to Burkholderia cepacia. Put plainly: microbe, parasite or virus in culture.
For another data set, the system named is Bacillus subtilis. Put plainly: microbe, parasite or virus in culture.
The subject of the next data set is Acinetobacter. Put plainly: microbe, parasite or virus in culture.
A further data set relates to Streptococcus pneumoniae. Put plainly: microbe, parasite or virus in culture.
Another data set has as its system Streptococcus pyogenes. Put plainly: microbe, parasite or virus in culture.
The subject of data set [3] is Staphylococcus aureus. The experiment in a line: microbe, parasite or virus in culture. The settings on record: NRS70.
The subject of data set [4] is Staphylococcus aureus. Put plainly: microbe, parasite or virus in culture. The conditions noted are these: ATCC 29213.
For a further data set, the system named is Enterococcus faecalis. The experiment in a line: microbe, parasite or virus in culture.
The next data set deals with Bacillus anthracis. The experiment in a line: microbe, parasite or virus in culture. The settings on record: Sterne.
Data set [5] has as its system Mycobacterium tuberculosis. The experiment in a line: microbe, parasite or virus in culture. The settings on record: H37Rv, 168 h.
For data set [6] the following is noted: buffer, 18 h, pH 7.4.

Results on two compounds are retold here after ChEMBL document CHEMBL2390858, “Design, synthesis and anti-tuberculosis activity of 1-adamantyl-3-heteroaryl ureas with improved in vitro pharmacokinetic properties” (Bioorg Med Chem, 2013).

SMILES strings stand for the structures. In brackets after ≈: the same amount, converted by molar mass.

One may read the IC50 as the midpoint of a concentration-inhibition curve. Low values mean greater potency in that assay, high ones weaker potency in that assay. Take `CC(C)c1nnc(NC(=O)NC2C3CC4CC(C3)CC2C4)o1` (centres undefined): the remaining at […] in data set [1] was above 30%. In addition, the IC50 in [2] was found to be 843 nM; with Vero, 33 µg/mL (≈ 108 µM). This compound also came in with a PPB in the data set with Plasma of 98%. The MIC with Pseudomonas aeruginosa, against Proteus vulgaris, with Proteus mirabilis, against Klebsiella pneumoniae, against Escherichia coli and against Burkholderia cepacia was above 200 µg/mL in each case. For the same compound, the MIC against Bacillus subtilis was 100 µg/mL (≈ 329 µM); against Acinetobacter it was above 200 µg/mL; against Streptococcus pneumoniae, 100 µg/mL (≈ 329 µM); in the data set with Streptococcus pyogenes, 200 µg/mL (≈ 657 µM); against Staphylococcus aureus [3] it was above 200 µg/mL; with Staphylococcus aureus [4] it was above 200 µg/mL. Also, the MIC in the data set with Enterococcus faecalis is 100 µg/mL (≈ 329 µM); against Bacillus anthracis, 100 µg/mL (≈ 329 µM); in data set [5], 1.56 µg/mL (≈ 5.12 µM).

As usually defined, the solubility is the concentration that dissolves in the medium under given conditions. Low readings indicate a poorly soluble substance, high ones a readily soluble substance. As for `CC(C)(C)c1cc(NC(=O)NC2C3CC4CC(C3)CC2C4)no1` (centres undefined), the remaining at […] in [1] was above 30%. Besides, the IC50 turned out to be 73 nM in data set [2] and 7 µg/mL (≈ 22.1 µM) with Vero. The PPB with Plasma was 95.2%. In data set [6], this compound registered a solubility of 22.7 µg/mL (≈ 71.5 µM). Further, the MIC in the data set on Pseudomonas aeruginosa, in the data set on Proteus vulgaris, against Proteus mirabilis, with Klebsiella pneumoniae, against Escherichia coli and against Burkholderia cepacia was above 200 µg/mL throughout. Also, the MIC against Bacillus subtilis is above 200 µg/mL; against Acinetobacter it was above 200 µg/mL; in the data set on Streptococcus pneumoniae it was above 200 µg/mL; in the data set on Streptococcus pyogenes, above 200 µg/mL; against Staphylococcus aureus [3] it was 200 µg/mL (≈ 630 µM); against Staphylococcus aureus [4], above 200 µg/mL. In addition, the MIC in the data set on Enterococcus faecalis was 6.25 µg/mL (≈ 19.7 µM); against Bacillus anthracis, above 200 µg/mL; in data set [5], 0.1 µg/mL (≈ 0.315 µM).
